{
  "source": "paper PMC3382068",
  "about": "(Bioorganic & medicinal chemistry, 2011)",
  "key": {"[1]": {"biological_target": "T1, hIcmt (Homo sapiens, UniProt O60725)", "T1 sequence (O60725 whole entry, the tested form may be a part)": "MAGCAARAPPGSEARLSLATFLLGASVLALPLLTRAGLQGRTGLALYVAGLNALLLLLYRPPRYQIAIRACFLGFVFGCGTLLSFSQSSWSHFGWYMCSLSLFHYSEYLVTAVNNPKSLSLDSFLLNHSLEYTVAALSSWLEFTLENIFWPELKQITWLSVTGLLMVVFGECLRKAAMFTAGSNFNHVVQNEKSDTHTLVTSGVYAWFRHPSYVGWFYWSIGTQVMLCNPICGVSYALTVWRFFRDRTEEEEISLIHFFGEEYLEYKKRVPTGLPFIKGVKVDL", "assay": "In vitro vapor diffusion methyltransferase assay, inhibition of hIcmt", "assay_type": "biochemical", "conditions": "for hIcmt inhibition (in words): 10 μM compound, 25 μM AFC; for Loss of inhibitory activity as compared to compound 1a: fold"}, "[2]": {"test_system": "PC3 prostate cancer cells", "conditions": "cited from earlier work"}, "[3]": {"biological_target": "T1, hIcmt", "conditions": "read-out: IC50 against hIcmt; previously reported; cited from earlier work"}, "[4]": {"test_system": "Ras activation in Jurkat T cells", "assay": "GST-RBD pull down assay of active GTP-bound Ras", "assay_type": "cell-based", "conditions": "25 μM, 24 h, then anti-CD-3ε stimulation"}, "[5]": {"test_system": "GFP-K-Ras in Jurkat T cells", "assay": "Subcellular localization of GFP-K-Ras by fluorescence microscopy", "assay_type": "cell-based", "conditions": "0.1 μM, 24 hours"}, "[6]": {"biological_target": "T1, hIcmt", "assay": "Kinetic mode of inhibition and KI determination"}, "[7]": {"test_system": "Erk phosphorylation in Jurkat T cells", "assay": "Signaling assay: anti-CD-3ε dependent Erk phosphorylation", "assay_type": "cell-based", "conditions": "25 μM, 24 h, then anti-CD-3ε stimulation"}},
  "note": "“Also recorded” adds a separate entry of the source.",
  "data": [
    {"molecule": "CCCCCCCCCCCSC[C@H](NC(=O)c1ccccc1Oc1ccccc1)C(=O)O", "note": "[Compound 21, ((R)-2-(2-phenoxybenzamido)-3-(undecylthio)propanoic acid)]", "values": [
      {"measurement": "hIcmt inhibition (in words)", "setting": "[1]", "value": "particularly poor inhibitor of hIcmt"}
    ]},
    {"molecule": "CC(C)=CCC/C(C)=C/CC/C(C)=C/CC/C(C)=C/CSC[C@H](NC(=O)c1ccccc1Oc1ccccc1)C(=O)O", "note": "[Compound 19, (R)-2-(2-phenoxybenzamido)-3-(((2E,6E,10E)-3,7,11,15-tetramethylhexadeca-2,6,10,14-tetraen-1-yl)thio)propanoic acid]", "values": [
      {"measurement": "hIcmt inhibition (in words)", "setting": "[1]", "value": "significant loss of hIcmt inhibition"}
    ]},
    {"molecule": "CCCCCCCCn1cc(CC(N)=O)c2cc(-c3cccc(C)c3)ccc21", "note": "[Cysmethynil]", "values": [
      {"measurement": "Effect on PC3 prostate cancer cells", "setting": "[2]", "value": "induction of autophagic cell death"}
    ]},
    {"molecule": "CC(C)=CCC/C(C)=C/CC/C(C)=C/CSC[C@H](NC(=O)c1ccccc1Cc1ccccc1)C(=O)O", "note": "[Compound 2c, (R)-2-(2-benzylbenzamido)-3-(((2E,6E)-3,7,11-trimethyldodeca-2,6,10-trien-1-yl)thio)propanoic acid]", "values": [
      {"measurement": "Loss of inhibitory activity as compared to compound 1a", "setting": "[1]", "value": "roughly four-fold"}
    ]},
    {"molecule": "CC(C)=CCC/C(C)=C/CC/C(C)=C/CSC[C@H](NC(=O)c1ccccc1Sc1ccccc1)C(=O)O", "note": "[Compound 2d, (R)-2-(2-(phenylthio)benzamido)-3-(((2E,6E)-3,7,11-trimethyldodeca-2,6,10-trien-1-yl)thio)propanoic acid]", "values": [
      {"measurement": "Loss of inhibitory activity as compared to compound 1a", "setting": "[1]", "value": "roughly four-fold"}
    ]},
    {"molecule": "anthranilic farnesylcysteine [anthranilic acid analog]", "values": [
      {"measurement": "IC50", "setting": "[3]", "value": 7.1, "unit": "µM"}
    ]},
    {"molecule": "CC(C)=CC/C(=C/CSC[C@H](NC(=O)c1ccccc1Oc1ccccc1)C(=O)O)CCc1ccc(-c2ccccc2)cc1", "note": "[Compound 1b, N-2-Phenoxybenzoyl-S-3-(3-methyl-but-2-enyl)-5-(4-biphenyl)pent-2-enyl-L-cysteine]", "values": [
      {"measurement": "Ras activation", "setting": "[4]", "value": "inhibited Ras activation significantly"},
      {"measurement": "Prevention of GFP-K-Ras membrane localization", "setting": "[5]", "value": "approximately 35%"},
      {"measurement": "Ki", "setting": "[6]", "value": "500 ± 70", "unit": "nM"},
      {"measurement": "Mode of inhibition", "setting": "[6]; AFC varied, inhibitor concentration fixed", "value": "mixed-mode inhibition; also recorded: mixed-type inhibition"},
      {"measurement": "α value", "setting": "[6]; mixed-type inhibition, competitive component dominated", "value": "greater than 1"},
      {"measurement": "Decrease of Erk activation compared to the control", "setting": "[7]", "value": "approximately three-fold"}
    ]},
    {"molecule": "CC(C)=CCC/C(C)=C/CC/C(C)=C/CSC[C@@H](C(=O)O)N(C)C(=O)c1ccccc1Oc1ccccc1", "note": "[Compound 20, (R)-2-(N-methyl-2-phenoxybenzamido)-3-(((2E,6E)-3,7,11-trimethyldodeca-2,6,10-trien-1-yl)thio)propanoic acid]", "values": [
      {"measurement": "hIcmt inhibition (in words)", "setting": "[1]", "value": "equivalent to our previous lead, 1a, in terms of percent inhibition"}
    ]}
  ]
}
